# Experimental data from PMC3578785, “Improved BM212 MmpL3 Inhibitor Analogue Shows Efficacy in Acute Murine Model of Tuberculosis Infection” (PLoS ONE, 2013).
# Where two headings read alike, the source gives them in different places.
# How the values were obtained:
# in vitro [1] = type: in vitro ADME, human; details: pH 7.4; for Cli human: 0.5 µM; for half-life: human microsomes, read-out: t1/2 in human microsomes
# Procedure: (§1) Protocol S6. Microsomal fraction stability experimental procedure.
# (§2) Pooled mouse and human liver microsomes are purchased from Xenotech. Microsomes (final protein concentration 0.5 mg/mL, MgCl2 (final concentration = 5 mM) and test compound (final substrate concentration = 0.5 µM; final DMSO concentration = 0.5%) in 0.1M phosphate buffer pH 7.4 were pre-incubated at 37°C prior to the addition of NADPH (final concentration = 1 mM) to initiate the reaction. The final incubation volume was 600 µL. A control incubation was included for each compound tested where 0.1 M phosphate buffer pH 7.4 is added instead of NADPH (minus NADPH). One control compound was included with each species. All incubations were performed singularly for each test compound. Each compound was incubated for 30 minutes and samples (90 µL) of incubate were taken at 0, 5, 15, 20 and 30 min. The control (minus NADPH) was sampled at 30 min only. The reactions were stopped by the addition of sample to 200 µL Acetonitrile:Methanol 3:1 containing internal standard. The terminated samples were centrifuged at 2.500 rpm for 20 min at 4°C to precipitate the protein.
# (§3) Quantitative Analysis: following protein precipitation, the samples were analyzed using specific […]
# (§4) Data Analysis: from a plot of ln peak area ratio (compound peak area/internal standard peak area) against time, the gradient of the line was determined. Subsequently, half-life and intrinsic clearance were calculated using the equations below:
# (§5) Elimination rate constant (k) = (- gradient)
# (§6) Half life (t1/2) (min) = […]
# (§7) Intrinsic Clearance (CLint) (mL/min/g protein) = […] where V=Incubation volume mL/g microsomal protein.
# HepG2 cells = details: human, 48 h
# in vitro [2] = details: African green monkey
# in vitro [3] = type: in vitro ADME, mouse; details: pH 7.4; for Cli mouse: 0.5 µM; for half-life: mouse microsomes, read-out: t1/2 in mouse microsomes
# Procedure: as §1, §2, §3, §4, §5, §6, §7
# [4] = molecular target: human serum albumin (HSA) (Homo sapiens, UniProt P02768); type: in vitro ADME; details: human, pH 7.4
# Chain of human serum albumin (HSA) (P02768 25-609): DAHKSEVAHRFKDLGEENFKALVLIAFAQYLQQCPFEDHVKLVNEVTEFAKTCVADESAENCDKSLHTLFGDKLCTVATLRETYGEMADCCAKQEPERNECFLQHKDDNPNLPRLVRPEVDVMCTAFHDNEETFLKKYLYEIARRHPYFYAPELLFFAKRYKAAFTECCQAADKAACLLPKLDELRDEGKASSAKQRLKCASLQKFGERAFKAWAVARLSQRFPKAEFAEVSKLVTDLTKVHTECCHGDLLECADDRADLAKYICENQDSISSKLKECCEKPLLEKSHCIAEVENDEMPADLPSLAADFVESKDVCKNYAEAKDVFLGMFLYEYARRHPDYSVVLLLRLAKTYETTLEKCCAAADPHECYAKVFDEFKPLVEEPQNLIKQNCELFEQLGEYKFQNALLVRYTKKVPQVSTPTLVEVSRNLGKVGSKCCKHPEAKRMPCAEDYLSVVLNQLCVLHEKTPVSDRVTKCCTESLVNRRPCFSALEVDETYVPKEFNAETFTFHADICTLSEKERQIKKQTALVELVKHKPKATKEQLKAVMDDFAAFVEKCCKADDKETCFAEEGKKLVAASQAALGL
# Procedure: Standard physical chemical property determination methods were used. Please see the Supporting Information for details.
# Protocol S4. Determination of compounds binding to human serum albumin (HSA).
# The determination of compounds binding to human serum albumin (HSA) was carried out by retention time measurements using immobilized HSA HPLC columns obtained from Chiral Technologies Ltd, France. The column dimensions were 50x3 mm. The mobile phase was 50 mM ammonium acetate buffer pH 7.4 and HPLC grade 2-propanol. HPLC Method: flow rate 1.8 ml/min applying 2.5 min 2-propanol gradient up to 30%. From 2.5 min to 4.5 min the 2-propanol concentration in the mobile phase was kept at 30%. From 4.5 min to 4.6 min, the 2-propanol concentration was decreased to 0% and kept like that until the end of the gradient run which was 6 min. A calibration set of compounds was first analyzed for which plasma protein binding data were available: Warfarin, Nizatidine, Bromazepam, Carbamazepine, Budesonide, Nicardipine, Indomethacine, Piroxicam, Naproxen. The calculation of the HSA binding data expressed as %HSA was carried out as described previously.
# M. tuberculosis H37Rv = assay: microbe, parasite or virus in culture; type: cell-based; details: Mycobacterium tuberculosis, aerobic conditions
# in vitro [5] = details: plasma, pH 7.4
SMILES,Cli human (in vitro [1]) [mL/min/g],half-life (in vitro [1]) [min],"Tox50, cytotoxicity in HepG2 cells (HepG2 cells) [µM]",CC50 at 72 h (in vitro [2]) [µM],Cli mouse (in vitro [3]) [mL/min/g],half-life (in vitro [3]) [min],HSA (%) binding [4] [%],chromatographic logD (physchem; pH 2),chromatographic logD (physchem; pH 7.4),chromatographic logD (physchem; pH 10.5),MIC (M. tuberculosis H37Rv) [µM],fraction unbound at 1 µM (in vitro [5]),melting point [°C]
"COc1ccc(-n2c(-c3ccc(C)cc3)cc(CN3CCOCC3)c2C)cc1 [Compound 18, 2-Methyl-3-[(morpholin-4-yl)-methyl]-5-[4-(methyl)phenyl]-1-[4-(methoxy)phenyl]-1H-pyrrole]",1.26,59.9,11.7,208,8.92,< 5,95.87,1.04,3.6,4.12,2,0.007,128
"CCCc1ccc(-n2c(-c3ccc(Cl)cc3)cc(CN3CCOCC3)c2C)cc1 [Compound 16, 2-Methyl-3-[(morpholin-4-yl)-methyl]-5-[4-(chloro)phenyl]-1-[4-(propyl)phenyl]-1H-pyrrole]",<0.5,> 30,15.4,60.1,,> 30,98.24,1.72,5.61,5.86,0.6,< 0.001,94
"Cc1c(CN2CCOCC2)cc(-c2ccc(Cl)cc2)n1-c1ccc(C(C)C)cc1 [Compound 17, 2-Methyl-3-[(morpholin-4-yl)-methyl]-5-[4-(chloro)phenyl]-1-[4-(i-propyl)phenyl]-1H-pyrrole]",0.5 ± 0,> 30,14.7,175,3.8 ± 0.1,19.6,98.19,1.67,5.43,5.7,0.9,< 0.001,113
"CCc1ccc(-c2cc(CN3CCOCC3)c(C)n2-c2ccc(F)cc2)cc1 [Compound 8, 2-Methyl-3-[(morpholin-4-yl)-methyl]-5-[4-(ethyl)phenyl]-1-[4-(fluoro)phenyl]-1H-pyrrole]",1.09,> 30,19.5,18.9,5.64,12.5,97.14,1.26,4.21,4.64,0.2,0.006,107
CSc1ccc(-c2cc(CN3CCSCC3)c(C)n2-c2ccc(F)cc2)cc1 [Compound 4],,,,15.2,7.3 ± 0.1,10,98.04,1.33,4.52,5.03,0.16 to 0.2,0.007,
"CCCc1ccc(-c2cc(CN3CCOCC3)c(C)n2-c2ccc(Cl)cc2)cc1 [Compound 12, 2-Methyl-3-[(morpholin-4-yl)-methyl]-5-[4-(propyl)phenyl]-1-[4-(chloro)phenyl]-1H-pyrrole]",<0.5,> 30,13.3,> 256,,> 30,98.00,1.61,5.3,5.59,2,< 0.001,113
"Cc1ccc(-n2c(-c3ccc(Cl)cc3)cc(CN3CCOCC3)c2C)cc1 [Compound 14, 2-Methyl-3-[(morpholin-4-yl)-methyl]-5-[4-(chloro)phenyl]-1-[4-(methyl)phenyl]-1H-pyrrole]",0.57,> 30,26.0,9.31,7.41,9.69,97.62,1.28,4.53,4.94,1.3,< 0.001,111
